Reference: US5885592A, “Methods and pharmaceutical compositions for oral delivery of molecular iodine” (priority 1997, dated 1999)

Experiments:
dysplastic mastodynia = details: women with dysplastic mastodynia; cited from earlier work
thyroid [1] = assay: Thyroid weight of rats after subchronic oral administration (Sherer et al., cited); type: in vivo, male rats; details: compared with molecular iodine
Description: The only scientific studies on the relative oral toxicity of molecular iodine and iodide was performed during the early 1990s (Karla Thrall, Ph.D. Thesis, "Formation of Organic By-Products Following Consumption of Iodine Disinfected Drinking Water", Summary and Conclusion Section, Oregon State University, Department of Chemistry, 1992). The weight of a mammals thyroid is one key diagnostic measure used to evaluate the toxicity of an iodine composition. […] Another way to state this is that it required ten time more molecular iodine than iodide to effect animal thyroid function with an orally administered iodine composition.

mammary tissue [2] = assay: Histologic grading of mammary tissue in iodine deficient rats, 2 week study (Example 8); type: in vivo, Female Sprague-Dawley rats
Description: Perchlorate-treated (400 mg/dL NaClO4) municipal tap water was provided ad libitum for the first five days of captivity. […] Each day for the five days preceding the initiation of testing, animals received estrogen (25 ug of 17-βestradiol) suspended in 100 ul of sesame oil injected IM. During the 2 week experiment estrogen (2.5 ug 17-βestradiol) suspended in 100 ul of sesame oil was injected daily. Vaginal smears were taken every other day to insure that rats achieved constant estrus throughout the experiment.
(§1) Rats were dosed with molecular iodine once daily. Food was removed from the rats each morning and ten hours later, each rat was dosed with 80 ug/kg of molecular iodine. An equivalent dose of iodide (80 ug/kg) was given to a control group of rats. The negative control consisted of rats which were dosed with tap water. Rats were weighed daily. At the end of the 2 week study rats were sacrificed and microscopic sections of the mammary gland tissues were stained with hematoxylin and eosin prior to being read by a pathologist.
Each group contained 10 animals.
The mammary tissue was graded for lobular hyperplasia, secretions, periductal fibrosis, and fibroadenomatous changes. The scoring system for lobular hyperplasia, secretions, periductal fibrosis graded as positive only those animals showing moderate to severe conditions. […] The results of this histological grading are shown below in tabular form.

mammary tissue [3] = assay: Histologic grading of mammary tissue in iodine deficient rats, 4 weeks (Example 12); type: in vivo, Female Sprague-Dawley rats; details: for Fibroadenomata / Lobular hyperplasia / Periductal fibrosis / Secretion: 4 weeks
Description: as §1, with “one of three concentrations 0.0010, 0.010 or 0.10 mg/kg” for “80 ug/kg”, “A” for “An equivalent”, “(100” for “(80”, “water.” for “water. Rats were weighed daily.”, “4 weeks” for “the 2 week study”
Six groups of animals were examined: groups 1-3 received daily doses of one of three concentrations of molecular iodine; (4) received the normal diet without perchlorate treatment; (5) received the iodine deficient diet with a water gavage; and (6) received an iodine deficient diet and were dosed with iodide (100 ug/kg). […] The results of this histological grading are shown below in tabular form.

human = human oral consumption; cited from earlier work
thyroid [4] = details: male rats, cited from earlier work
[5] = Body weight of iodine deficient rats, 2 week study (Example 8); details: in g (unit assumed)
mammary glands = details: compared with iodide; cited from earlier work
thyroid hormones = details: repeated daily doses; no increase below; cited from earlier work
[6] = function of pH; cited from earlier work

In the case of II [iodine], the improvement rate (dysplastic mastodynia) is given as 71%.

For I [iodide], the “concentration affecting thyroid weight relative to molecular iodine (fold less)” value (thyroid [1]) was 10 fold, the Fibroadenomata (mammary tissue [2]; 80 ug/kg daily gavage, 2 weeks) was 4/10 and the “secretion and fibroadenomata (result in words)” value (mammary tissue [2]; 80 ug/kg daily gavage, 2 weeks) was “displayed increased secretion and fibroadenomata”. The Lobular hyperplasia (mammary tissue [2]; po, 0.08 mg/kg, 336 h) was 4/10, the Periductal fibrosis (mammary tissue [2]; po, 0.08 mg/kg, 336 h) was 6/10 and the Secretion (mammary tissue [2]; po, 0.08 mg/kg, 336 h) was 4/10. The Fibroadenomata (mammary tissue [3]; 100 ug/kg daily) was 3/10, the Lobular hyperplasia (mammary tissue [3]; 100 ug/kg daily) was 4/10 and the Periductal fibrosis (mammary tissue [3]; 100 ug/kg daily) was 5/10. The Secretion (mammary tissue [3]; 100 ug/kg daily) was 5/10, the “formation of fibroadenomata (in words)” value (mammary tissue [3]; iodide 100 ug/kg daily) was “did not substantially alleviate the formation of fibroadenomata” and the “range of human consumption above which there is a health risk” value (human) was 0.150 to 1.0 mg/day. For the same compound, the “increased thyroid weight, dose” value (thyroid [4]; subchronic oral administration) was 10 mg/kg, the “average body weight at end” value ([5]; 80 ug/kg daily, end of 2 weeks) was 235±7.1 and the “average body weight at start” value ([5]; 80 ug/kg, start) was 214±6.5.

With II [molecular iodine] the “formation of fibroadenomata and periductal fibrosis (in words)” value (mammary tissue [3]; 1 ug/kg daily) was “did not substantially alleviate the formation of fibroadenomata and periductal fibrosis”, the Fibroadenomata (mammary tissue [3]; 1 ug/kg daily) was 4/10 and the Lobular hyperplasia (mammary tissue [3]; 1 ug/kg daily) was 4.10. For the same compound, the Periductal fibrosis (mammary tissue [3]; 1 ug/kg daily) was 6/10, the Secretion (mammary tissue [3]; 1 ug/kg daily) was 6/10 and the Fibroadenomata (mammary tissue [3]; 10 ug/kg daily) was 1/10. For the same compound, the Lobular hyperplasia (mammary tissue [3]; 10 ug/kg daily) was 2/10, the Periductal fibrosis (mammary tissue [3]; 10 ug/kg daily) was 4/10 and the Secretion (mammary tissue [3]; 10 ug/kg daily) was 4/10. For the same compound, the Fibroadenomata (mammary tissue [3]; 100 ug/kg daily) was 1/10, the Lobular hyperplasia (mammary tissue [3]; 100 ug/kg daily) was 2/10 and the Periductal fibrosis (mammary tissue [3]; 100 ug/kg daily) was 2/10. For the same compound, the Secretion (mammary tissue [3]; 100 ug/kg daily) was 3/10, the “formation of fibroadenomata and periductal fibrosis (in words)” value (mammary tissue [3]; 10 and 100 ug/kg daily) was “substantially reduced the formation of fibroadenomata and periductal fibrosis” and the “diminishing ductal hyperplasia and perilobular fibrosis in the mammary glands” value (mammary glands) was “distinctly more effective in diminishing ductal hyperplasia and perilobular fibrosis in the mammary glands than iodide”. For the same compound, the “did not effect thyroid weight even at concentrations of” value (thyroid [4]; no effect up to this dose, oral) was 100 mg/kg, the “dose at which an increase in steady state levels of thyroid hormones was measured” value (thyroid hormones) was 10 mg per kilogram of body weight and the stability in water [6] was “unstable in water”.
